According to US20070197599A1, “HYDROXYLAMINES AND DERIVATIVES AS ANTI-ANGIOGENIC AGENTS” (priority 2006, published 2007):
“And” between values parts separate entries of the source, which are not always exact repeats. Equal values may be shown once.

Assays:
[1] = In vitro stability of Compound 1 in rat plasma; type: in vitro ADME; settings: formed from OT-551 (Compound 1, 1000 ng/mL)
Procedure: (§1) The active metabolite of Compound 1 (Cyclopropanecarboxylic acid 1-hydroxy-2,2,6,6-tetramethyl-piperidin-4-yl ester) is TPH. The objective of this analysis was to determine the in vitro half-life of Compound 1 in rat, rabbit, dog, and human plasma under standardized incubation conditions.
(§2) Compound 1 was incubated with pooled rat, rabbit, dog, and human plasma for various times under standardized incubation conditions. Pre-labeled tubes containing pooled plasma from rats, rabbits, dogs, and humans were pre-incubated in a shaking 37° C. water bath. A Compound 1 solution was added to the tubes at a final concentration of 1000 ng/mL. Time zero samples (n=5) were immediately removed and transferred into tubes containing a stabilizer solution (DTPA, acetylcysteine and ascorbic acid), the LC/MS/MS assay internal standard and methanol. […] The tubes were vortexed, placed on ice, followed by centrifugation. One hundred-μL aliquots of the supernatant were transferred into HPLC sample vials. Additional tubes (n=5 at each time point) were incubated for 5, 10, 20, 30, 60, 120, and 240 minutes at 37° C. and thereafter processed. The amount of Compound 1 and TPH in each incubated sample was quantified using validated LC/MS/MS assays.

[2] = Single-dose 10-minute intravenous infusion toxicokinetics in Sprague-Dawley rats; type: in vivo
Procedure: Blood for toxicokinetic evaluations was collected at pre-determined time points during and after the infusion.
All pharmacokinetic analyses were performed using Kinetica®, version 4.2 (Innaphase, Philadelphia, Pa.).
Cmax is the observed maximum plasma concentration
Tmax is the time Cmax is reached
T1/2 is the elimination half-life
The plasma concentrations were rounded to the nearest tenth of a ng/mL before the calculations. […] Nominal time points were used for all calculations.

[3] = tested on: VEGF-induced angiogenesis in the CAM model; experiment: VEGF-induced angiogenesis in the CAM model (TPH); type: in vivo, chick
Procedure: Neovascularization was examined by previously described methods (see references at the end of Example 5). Ten-day-old fertilized chicken eggs were incubated at 37° C. with 55% relative humidity. In the dark with the help of candling lamp and using a hypodermic needle a small hole was punctured in the shell covering the air sac. A second hole was punctured on the wider side of the egg above an avascular area of the embryonic membrane. An artificial air sac was created below the second hole by applying gentle vacuum to the first hole using a small rubber squeeze bulb. The vacuum caused the separation of chorioallantoic membrane (CAM) from the shell. An approximately 1.0 cm^2 widow was cut in the shell over the dropped CAM with the use of a mini drill. The underlying CAM was accessed through this small window.
Filter disks were punched using a small puncher from filter paper #1 (Whatman International, United Kingdom). Filter disks were soaked in 3 mg/ml cortisone acetate solution (95% ethanol and water) and air-dried under sterile condition. For inducing angiogenesis, sterile filter disks were saturated with bFGF (1 μg/ml) or other pro-angiogenesis factors and control disks were saturated with PBS without Calcium and Magnesium.
Using sterile forceps one filter/CAM was placed from the window. The window was sealed with Highland brand transparent tape. After 24 hr, 10-25 µl of test agent (inhibitor) was injected intravenously or added topically into the CAM membrane of bFGF or other pro-angiogenesis factors stimulated CAMs. • Control filter disks received PBS without Calcium and Magnesium. • After 48 hr, CAM tissue directly beneath filter disk was harvested and placed in a 35-mm Petri dish. Eight-Ten eggs/treatment group was used.
A pro-angiogenic agent (see Examples, below) was added to induce new blood vessel branches on the CAM of 10-day old embryos. Sterile disks of #1 filter paper (Whatman International, United Kingdom) were pre-treated with 3 mg/ml cortisone acetate, and air dried under sterile conditions. The disks were then suspended in PBS (Phosphate Buffered Saline) and placed on growing CAMs. Filters treated with TPH (TEMPOL-H) or TEMPOL and/or H2O2 or TPH and/or bFGF or VEGF were placed on the first day of the 3-day incubation.
Digital Images and Microscopic analysis of CAM sections: CAM sections from Petri dish were examined using SV6 stereomicroscope (Karl Zeiss) at 50× magnification. Digital images were captured using a 3-CCD color video camera system (Toshiba America, New York, N.Y.). These images were analyzed using Image-Pro Plus software (Media Cybernetics). The number of branch points in blood vessels within the circular region superimposed to the area of a filter disk was counted for each section. After incubation at 37° C. with 55% relative humidity for 3 days, the CAM tissue directly beneath each filter disk was resected from control and treated CAM samples. Tissues were washed three times with PBS. Sections were placed in a 35-mm Petri dish (Nalge Nunc; Rochester, N.Y.) and were examined under a SV6 stereomicroscope (Karl Zeiss; Thornwood, N.Y.) at 50× magnification. Digital images of CAM sections adjacent to filters were collected using a 3-CCD color video camera system (Toshiba America; New York, N.Y.) and analyzed with the Image-Pro Plus software (Media Cybernetics; Silver Spring, Md.). The number of vessel branch points contained in a circular region equal to the area of a filter disk was counted for each section. Percent inhibition data are expressed as the quotient of the experimental value minus the negative control value divided by the difference between the positive control value and the negative control value. One image was counted in each CAM preparation, and findings from eight CAM preparations were analyzed for each treatment condition. In addition, each experiment was performed three times. […]

[4] = In vitro stability of Compound 1 in dog plasma; type: in vitro ADME; settings: formed from OT-551 (Compound 1, 1000 ng/mL)
Procedure: as §1, §2

[5] = after Compound 1 10 mg/kg iv infusion
[6] = after Compound 1 30 mg/kg iv infusion
[7] = after Compound 1 100 mg/kg iv infusion

CC1(C)CC(O)CC(C)(C)N1O [TPH]
Concentration of TPH in plasma ([1]; incubation 0 min): 10.23 ± 1.59 ng/mL | Concentration of TPH in plasma ([1]; incubation 5 min): 30.47 ± 1.65 ng/mL | Concentration of TPH in plasma ([1]; incubation 10 min): 50.91 ± 2.11 ng/mL | Concentration of TPH in plasma ([1]; incubation 20 min): 86.30 ± 3.30 ng/mL | Concentration of TPH in plasma ([1]; incubation 30 min): 119.63 ± 7.08 ng/mL | Concentration of TPH in plasma ([1]; incubation 60 min): 201.94 ± 4.19 ng/mL | Concentration of TPH in plasma ([1]; incubation 120 min): 304.66 ± 7.27 ng/mL | Concentration of TPH in plasma ([1]; incubation 240 min): 362.66 ± 7.50 ng/mL | plasma levels of TPH at 4 hr post infusion ([2]; after Compound 1 10 mg/kg dose): still quantifiable | AUC(0-4.167 hr) of TPH [2, 5]: 1694.8 ng·h/mL | Cmax of TPH [2, 5]: 2481.7 ng/mL | Tmax of TPH [2, 5]: 10 min | T½ of TPH (elimination half-life) [2, 5]: 24 min | Plasma concentration of TPH ([2]; after Compound 1 10 mg/kg iv infusion, 0.167 hr): 2481.7 ± 325.8 ng/mL | Plasma concentration of TPH ([2]; after Compound 1 10 mg/kg iv infusion, 1.167 hr): 204.7 ± 85.6 ng/mL | Plasma concentration of TPH ([2]; after Compound 1 10 mg/kg iv infusion, 2.167 hr): 25.2 ± 24.0 ng/mL | Plasma concentration of TPH ([2]; after Compound 1 10 mg/kg iv infusion, 4.167 hr): 4.2 ± 10.3 ng/mL | AUC of TPH ([2]; after Compound 1 10 mg/kg iv infusion, to time infinity): 1697.5 ng·h/mL | Cmax of TPH [2, 6]: 8337.7 ng/mL | Tmax of TPH [2, 6]: 10 min | Plasma concentration of TPH ([2]; after Compound 1 30 mg/kg iv infusion, 0.167 hr): 8337.7 ± 2099.5 ng/mL | Plasma concentration of TPH ([2]; after Compound 1 30 mg/kg iv infusion, 4.167 hr): 53.8 ± 29.7 ng/mL | Cmax of TPH [2, 7]: 29020.8 ng/mL | Tmax of TPH [2, 7]: 10 min | Plasma concentration of TPH ([2]; after Compound 1 100 mg/kg iv infusion, 0.167 hr): 29020.8 ± 11713.7 ng/mL | Plasma concentration of TPH ([2]; after Compound 1 100 mg/kg iv infusion, 4.167 hr): 160.0 ± 97.5 ng/mL | Tmax of TPH ([2]; after Compound 1 200 mg/kg iv infusion): 10 min | Plasma concentration of TPH ([2]; after Compound 1 200 mg/kg iv infusion, 0.167 hr): 60802.2 ± 8922.5 ng/mL | Plasma concentration of TPH ([2]; after Compound 1 200 mg/kg iv infusion, 4.167 hr): 524.5 ± 237.0 ng/mL | Cmax of TPH ([2]; after Compound 1 200 mg/kg iv infusion, 200 mg/kg): 60802.1 ng/mL and 60802.2 ng/mL | levels of TPH at four hours after terminating the infusion relative to concentrations immediately after terminating the infusions ([2]; after Compound 1 30, 100 and 200 mg/kg): less than 1% | inhibition of VEGF-induced angiogenesis ([3]; 100-800 μg (Table 3)): dose-dependent inhibition | anti-angiogenesis efficacy against VEGF-induced angiogenesis as compared with bFGF ([3]; Tables 2 and 3): much greater | Mean % Inhibition ± SD ([3]; VEGF (2 μg/ml) + TPH 100 μg): 37.6 ± 6.9 % | Mean Branch points ± SD ([3]; VEGF (2 μg/ml) + TPH 100 μg): 154.8 ± 7.5 | Mean % Inhibition ± SD ([3]; VEGF (2 μg/ml) + TPH 200 μg): 42 ± 3.5 % | Mean Branch points ± SD ([3]; VEGF (2 μg/ml) + TPH 200 μg): 150 ± 3.8 | Mean % Inhibition ± SD ([3]; VEGF (2 μg/ml) + TPH 400 μg): 53.3 ± 3.3 % | Mean Branch points ± SD ([3]; VEGF (2 μg/ml) + TPH 400 μg): 137.8 ± 3.0 | Mean % Inhibition ± SD ([3]; VEGF (2 μg/ml) + TPH 800 μg): 70.7 ± 9.1 % | Mean Branch points ± SD ([3]; VEGF (2 μg/ml) + TPH 800 μg): 118.8 ± 9.9 | Concentration of TPH in plasma ([4]; incubation 0 min): 0.00 ± 0.00 ng/mL | Concentration of TPH in plasma ([4]; incubation 5 min): 5.85 ± 0.73 ng/mL | Concentration of TPH in plasma ([4]; incubation 10 min): 8.77 ± 0.65 ng/mL | Concentration of TPH in plasma ([4]; incubation 20 min): 12.79 ± 0.74 ng/mL | Concentration of TPH in plasma ([4]; incubation 30 min): 16.22 ± 0.67 ng/mL | Concentration of TPH in plasma ([4]; incubation 60 min): 25.68 ± 1.04 ng/mL | Concentration of TPH in plasma ([4]; incubation 120 min): 39.31 ± 1.09 ng/mL | Concentration of TPH in plasma ([4]; incubation 240 min): 53.92 ± 1.68 ng/mL
